Laboratory results: PubChem BioAssay (NCI)
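Five concentrations, 48 hours, 96-well plates. Here, GI50 denotes the concentration required for 50% inhibition of growth. Definition used: TGI = concentration required for complete inhibition of growth.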 Where a SMILES comes first, the peptide text is derived from it.

Key:
Experiment in all cases: NCI-60 cell line screen, 48 h
SK-MEL-28 melanoma = test system: SK-MEL-28 melanoma
A549 NSCLC = test system: A549 NSCLC
ACHN renal = test system: ACHN renal
TK-10 renal = test system: TK-10 renal
SN12C renal = test system: SN12C renal
SF-295 CNS = test system: SF-295 CNS
KM20L2 colon = test system: KM20L2 colon
SNB-78 CNS = test system: SNB-78 CNS
K-562 leukemia = test system: K-562 leukemia
OVCAR-4 ovarian = test system: OVCAR-4 ovarian
DLD-1 colon = test system: DLD-1 colon
M19-MEL melanoma = test system: M19-MEL melanoma

Row | Compound | TGI (SK-MEL-28 melanoma) | TGI (A549 NSCLC) | TGI (ACHN renal) | TGI (TK-10 renal) | TGI (SN12C renal) | TGI (SF-295 CNS) | TGI (KM20L2 colon) | TGI (SNB-78 CNS) | TGI (K-562 leukemia) | TGI (OVCAR-4 ovarian) | TGI (DLD-1 colon) | TGI (M19-MEL melanoma) | GI50 (SK-MEL-28 melanoma) | GI50 (A549 NSCLC) | GI50 (ACHN renal) | GI50 (TK-10 renal) | GI50 (SN12C renal) | GI50 (SF-295 CNS) | GI50 (K-562 leukemia) | GI50 (OVCAR-4 ovarian)
1 | Cc1ccc(NC(=S)SCCC(=O)O)cc1 | > 100 µM | > 100 µM | > 100 µM | > 100 µM | > 100 µM | > 100 µM | > 100 µM | > 100 µM | > 100 µM | > 100 µM |  |  |  |  |  |  |  |  |  | 
2 | CCN(CC)C(=O)N1CCN(C=S)CC1 | > 100 µM | > 100 µM | > 100 µM | > 100 µM | > 100 µM |  | > 100 µM | > 100 µM | > 100 µM | > 100 µM | > 100 µM | > 100 µM |  |  |  |  |  |  |  | 
3 | Clc1ccc2nc(-c3ccccc3)nc(Cl)c2c1 | > 100 µM | > 100 µM | 76.9 µM | 63.9 µM | > 100 µM | > 100 µM | > 100 µM | > 100 µM | > 100 µM |  | > 100 µM | > 100 µM |  |  |  |  |  |  |  | 
4 | COC(=O)C1C=NNC1C(=O)OC (stereo not drawn) |  | > 100 µM | > 100 µM | > 100 µM | > 100 µM | > 100 µM | > 100 µM | > 100 µM | > 100 µM | > 100 µM |  | > 100 µM |  |  |  |  |  |  |  | 
5 | CCC(C)C1NC(=O)C2CCCN2C(=O)CNC(=O)C(C)NC(=O)C(Cc2ccccc2)NC(=O)C(C(C)C)NC1=O (stereo not drawn) (cyclo(GPIVFA); configuration not given here) | > 100 µM | > 100 µM | > 100 µM | > 100 µM | > 100 µM | > 100 µM | > 100 µM |  |  | > 100 µM | > 100 µM | > 100 µM |  |  |  |  |  |  |  | 
6 | O=C(Nc1cc(Cl)cc(Cl)c1)/C(Cc1nc2ccccc2[nH]c1=O)=N/NC(=O)c1ccncc1 |  | > 100 µM | > 100 µM | > 100 µM |  | > 100 µM | > 100 µM | > 100 µM | > 100 µM | > 100 µM | > 100 µM | > 100 µM |  |  |  |  |  |  |  | 
7 | CC1C[C@]2(C[C@@H](C)C(=O)O2)O[C@@H]2CC3(C)[C@@H]4CCC5C(C)(C)OC(=O)C[C@H]6OO[C@]4(CC[C@]3(C)C12)CC56O (stereo partly drawn) | > 100 µM | > 100 µM | > 100 µM | > 100 µM | > 100 µM | > 100 µM |  | > 100 µM |  | > 100 µM | > 100 µM |  |  |  |  |  |  |  |  | 
8 | CNS(=O)(=O)NN(C)S(=O)(=O)c1ccc2ccccc2c1 |  | > 100 µM | > 100 µM | > 100 µM | > 100 µM | > 100 µM | > 100 µM |  | > 100 µM | > 100 µM | > 100 µM | > 100 µM |  |  |  |  |  |  |  | 
9 | CCCCNC(=O)c1cc(NCc2cc(O)ccc2O)ccc1O | 30.3 µM | 48.2 µM | 22.7 µM | 37.6 µM | 29.5 µM | > 100 µM |  |  | 75.2 µM | 24.8 µM |  |  | 16.3 µM | 21.9 µM | 10.8 µM | 22.6 µM | 13.6 µM | 46.2 µM | 16.6 µM | 12.3 µM
10 | O=S(=O)([O-])[O-].[Cl-].[NH2-].[NH2-].[NH2-].[NH2-].[Ru+3].c1ccncc1 | > 100 µM | > 100 µM | > 100 µM | > 100 µM | > 100 µM | > 100 µM | > 100 µM |  | > 100 µM | > 100 µM | > 100 µM |  |  |  |  |  |  |  |  | 
11 | C#CC1(O)c2ccccc2C(=O)c2ccccc21 | > 100 µM | > 100 µM | > 100 µM | > 100 µM | > 100 µM | > 100 µM | > 100 µM | > 100 µM | > 100 µM | > 100 µM |  | > 100 µM |  |  |  |  |  |  |  | 
12 | CCCNC(=O)c1ccc(Cl)cc1Cl | > 100 µM | > 100 µM | > 100 µM | > 100 µM | > 100 µM | > 100 µM |  |  | > 100 µM | > 100 µM |  |  | > 100 µM | > 100 µM | > 100 µM | > 100 µM | > 100 µM | > 100 µM | > 100 µM | > 100 µM
13 | O=C1C(=O)c2ccccc2C(O)=C1CCCc1ccc(C2CCCCCC2)cc1 | > 93.3 µM | 17.4 µM | > 100 µM | 57 µM | > 100 µM | 30.2 µM |  |  | > 34.8 µM | > 100 µM |  |  | 5.04 µM | 0.664 µM | 0.703 µM | 3.14 µM | 2.12 µM | 0.558 µM | 0.447 µM | 1.02 µM
14 | CC(CNCCCNCCNCCCNCO)[N+](=O)[O-] (stereo not drawn) | 26.6 µM | 57 µM | 30.3 µM | 8.6 µM | 28.4 µM | > 100 µM | 31.7 µM | 48.3 µM | 19.6 µM | 27.9 µM | 14.4 µM |  |  |  |  |  |  |  |  | 
15 | CC(=O)C1=C(C)N(C)C2(O)C=CC(=O)C3=C(O)c4ccccc4C(=O)C312 (stereo not drawn) | 47.3 µM | > 100 µM | 28.8 µM | 20.7 µM | 8.81 µM | 19.6 µM |  |  | > 100 µM | 34.2 µM |  |  | 19.4 µM | 23 µM | 10.8 µM | 6.72 µM | 3.13 µM | 5.03 µM | 3.14 µM | 17.1 µM
16 | CC1=C(C(=O)Nc2ccc([N+](=O)[O-])cc2)C(c2ccc3c(c2)OCO3)C(C(=O)Nc2ccc([N+](=O)[O-])cc2)=C(C)N1 | > 100 µM | > 100 µM | > 100 µM |  | > 100 µM | > 100 µM | > 100 µM | > 100 µM | > 100 µM | > 100 µM | > 100 µM | 61.6 µM |  |  |  |  |  |  |  | 
17 | CCCCC(=O)N/N=C/c1c(O)ccc2ccccc12 | > 52.2 µM | > 92.1 µM | > 88.6 µM | > 24.3 µM | > 100 µM | 16.5 µM |  |  | > 100 µM | > 33.2 µM |  |  | 2.16 µM | 4.47 µM | 1.38 µM | 1.82 µM | 5.44 µM | 1.83 µM | 1.89 µM | 1.47 µM
18 | COc1cc(C2C3=C(COC3=O)Nc3c2ccc2c3CCCC2)cc2c1OCO2 (stereo not drawn) | > 100 µM | > 89.3 µM | > 100 µM | > 94.3 µM | > 100 µM | 35.5 µM |  |  | > 100 µM | > 100 µM |  |  | 0.0547 µM | 0.0444 µM | 0.134 µM | 14.9 µM | 0.0723 µM | 0.0323 µM | 0.0351 µM | 0.121 µM
19 | C[C@]1(Cn2ccnn2)C(C(=O)O)N2C(=O)CC2S1(=O)=O (stereo partly drawn) | > 100 µM | > 100 µM | > 100 µM | > 100 µM | > 100 µM | > 100 µM |  |  | > 100 µM | > 100 µM |  |  | > 100 µM | > 100 µM | > 100 µM | > 100 µM | > 100 µM | > 100 µM | > 100 µM | > 100 µM
20 | c1cncc(C2Nc3cccc4cccc(c34)N2)c1 | > 100 µM | > 100 µM | 34.5 µM | 73.6 µM | > 100 µM | > 100 µM |  |  | > 100 µM | 27.3 µM |  |  | 64 µM | 38.8 µM | 17.3 µM | 26.8 µM | 53.4 µM | 49.7 µM | 28.8 µM | 13.8 µM
21 | COC(=O)C(CBr)CBr | 9.36 µM | 36.3 µM | 10.1 µM | 10.8 µM | 9.28 µM | 31.1 µM |  | 3.59 µM | 4.29 µM | 8.58 µM | 8.29 µM | 17.2 µM |  |  |  |  |  |  |  | 
22 | C=CC/C(=C\COP(=O)(OCc1ccc([N+](=O)[O-])o1)N(C)CCCCCl)CC/C=C(\C)CCC=C(C)C (stereo not drawn) | 32.9 µM | 26.9 µM | 30.2 µM | > 100 µM | 26.4 µM | 3.21 µM |  |  | > 100 µM | 39.3 µM |  |  | 17.2 µM | 13.9 µM | 15.5 µM | 83.8 µM | 13.6 µM | 0.0171 µM | 17.3 µM | 17.2 µM
23 | Cc1cc(C(=O)O)c(C)n1-c1cccc(C(=O)O)c1 | > 100 µM | > 100 µM | > 100 µM | > 100 µM | > 100 µM | > 100 µM |  |  | > 100 µM | > 100 µM |  |  | > 100 µM | > 100 µM | > 100 µM | > 100 µM | > 100 µM | > 100 µM | > 100 µM | > 100 µM
24 | C=C1C2CC(OC(C)=O)C3(C)C(c4ccoc4)OC(=O)[C@@H](O)[C@]13OC1C[C@H](OC(C)=O)C(C)(C)[C@H](CC(=O)OC)[C@]12C (stereo partly drawn) | > 100 µM | > 100 µM | > 100 µM | > 100 µM | > 100 µM | > 100 µM | > 100 µM | > 100 µM | > 100 µM | > 100 µM |  | > 100 µM |  |  |  |  |  |  |  | 
25 | CC12CO[C@@](C)(CC(S(=O)(=O)c3ccccc3)C1)O2 (stereo partly drawn) | > 100 µM | > 100 µM | > 100 µM |  | > 100 µM | > 100 µM | > 100 µM | > 100 µM | > 100 µM | > 100 µM | > 100 µM | > 100 µM |  |  |  |  |  |  |  | 
26 | CCOC(=O)c1c(C)nc2c(c1N)CC(=O)N2CCc1ccccc1 | 12.1 µM | 36.9 µM | 6.48 µM | 15 µM | 18.3 µM | 33.1 µM |  |  | > 100 µM | 3.26 µM |  |  | 2.35 µM | 4.19 µM | 0.595 µM | 0.596 µM | 0.434 µM | 2.16 µM | 0.424 µM | 1.48 µM
